Results reported in paper PMC6273400, “Enhancement of Exposure and Reduction of Elimination for Paeoniflorin or Albiflorin via Co-Administration with Total Peony Glucosides and Hypoxic Pharmacokinetics Comparison” (Molecules, 2016).

Key:
[1] = Stability of the analytes in SD rat plasma (QC samples); type: in vitro ADME; settings: 24 h after pretreatment, three freeze (−80 °C)/thaw (room temperature) cycles, 30 days at −80 °C
Method: The stabilities of the analytes in the SD rat plasma were investigated using the QC sample solutions stored under different temperature conditions for different periods of time which likely to be encountered during sample storage and the analytical process. The QC samples were tested for post-treatment, three freeze-thaw cycles and long-term stabilities. The post-treatment was evaluated by placing the QC samples in the autosampler for 24 h. And for freeze-thaw cycle stability assessment, the QC samples were repeatedly freezed and thawed for three cycles at −80 °C to 20 °C. The long-term stability was carried out via placing the QC samples at −80 °C for at least 30 days.

[2] = Pharmacokinetics in rat plasma after intragastric administration, normoxia (UPLC-MS/MS); type: in vivo, Sprague-Dawley rats; settings: mean ± SD; for clearance / Cmax / Tmax / half-life: n = 6; for Cmax / Tmax / half-life / AUC(0-t) / MRT last: male, Sprague-Dawley, rat, plasma, po; for AUC(0-t): n = 6, read-out: AUC(0→24 h) (converted); for MRT last: n = 6, read-out: MRT(0→24 h) (converted)
Method: (§1) Male Sprague-Dawley (SD) rats (250 g ± 20 g) were purchased from the Animal Center of Capital Medical University (ACCMU, Beijing, China). Animals were housed in individual cages with free access to food and water in a room with the illumination (a 12 h light and dark cycle), temperature and relative humidity controlled automatically. Within five days before experiments a jugular vein in each rat under anaesthesia was cannulated by insertion of an indwelling cannula for blood sampling. After fully recovery, the rats were housed with unlimited access to food and water except for fasting 12 h before the experiment with water available. The seven groups of PF/AF and TGP were intragastrically administered to the Sprague-Dawley rats, respectively. All the animal experiments were carried out in accordance with the Guide for the Care and Use of Laboratory Animals as adopted and promulgated by the National Health Ministry of China. The protocols of animal experiments had been approved by the Animal Center of Capital Medical University.
(§2) The UPLC-MS/MS system consisted of a UPLC system (Agilent Technologies, Palo Alto, CA, USA) including a G4220A 1290 binary pump, a G1379A vacuum degasser, a G4226 autosampler, a G1330B 1290 thermostat and triple quadrupole mass spectrometer equipped with an electrospray ionization (ESI) source (Series 6490, Agilent Technologies). The system was controlled with the Agilent Technologies Mass Hunter Workstation B.06.00 software for data acquisition and analysis. The analytes were separated on ZORBAX Eclipse plus C18 column (2.1 mm × 100 mm, 3.5 μm). The mobile phase consisted of 0.2% (v/v) formic acid in water (A) and methanol (B). The mobile phase conditions were 79:21 (A:B, v/v) and the flow rate was 0.4 mL/min. The column temperature was maintained at 30 °C. The sample injection volume was 5 μL. The detection was performed on the triple quadrupole mass spectrometer equipped with electrospray source (Series 6490, Agilent Technologies). High purity nitrogen served as both the nebulizing and sheath gas. The optimized parameters in the positive or negative were as follows: capillary voltage at 3 kV, nozzle voltage at 1.5 kV, gas temperature of 200 °C and sheath gas temperature of 250 °C. The quantification was performed by multiple reaction monitoring (MRM) via precursor-to-product ion pair. AF and IS were detected in positive ion mode while PF was detected in negative ion mode. The parameters were set as follows: m/z 525→449 for PF (fragmentor energy, 380 eV; collision energy, 10 eV; dwell time, 80 ms); m/z 481→105 for AF (fragmentor energy, 380 eV; collision energy, 28 eV; dwell time, 80 ms); m/z 417→297 for IS (fragmentor energy, 380 eV; collision energy, 25 eV; dwell time, 80 ms).
(§3) A 100 μL aliquot of plasma sample was added with 50 μL 1% (v/v) formic acid in water and 50 μL IS working solution (the IS, concentration of 100 ng/mL) and 300 μL acetonitrile. After vortexing for 2 min and centrifugation at 13,000× g for 10 min, the sample was transferred to another Axygen tube and evaporated to dryness in a rotary evaporator at 40 °C. The residue was reconstituted in 100 μL of water–methanol (79:21, v/v), then an aliquot of 5 μL was injected into the UPLC-MS/MS system for analysis.
(§4) The male Sprague-Dawley (SD) rats were randomly divided into seven groups (six rats in each group), which were housed with unlimited access to food and water, except for fasting 12 h before the experiment with water ad libitum. The hypoxic rats were exposed to a fractional concentration of 9.0% O2 after intragastric administration of drug for hypoxia pharmacokinetics experiments. The compound PF (80 mg/kg, normoxia and hypoxia), AF (14 mg/kg, normoxia and hypoxia), combination administration of PF (80 mg/kg) and AF (14 mg/kg), the two dosages of TPG (PF with 80 mg/kg, and AF with 14 mg/kg) were intragastrically administered to the rats, respectively. […]

[3] = Pharmacokinetics in rat plasma after intragastric administration, hypoxia (9.0% O2); type: in vivo, Sprague-Dawley rats; settings: mean ± SD; for clearance / Cmax / Tmax / half-life: n = 6; for Cmax / Tmax / half-life / AUC(0-t) / MRT last: male, Sprague-Dawley, po; for AUC(0-t): n = 6, read-out: AUC(0→24 h) (converted); for MRT last: n = 6, read-out: MRT(0→24 h) (converted)
Method: as §1, §2, §3, §4

[4] = 14 mg/kg, AF (14 mg/kg) combined with PF (80 mg/kg), intragastric
[5] = 14 mg/kg, AF alone, 14 mg/kg intragastric, normoxia
[6] = 14 mg/kg, AF in TPG (TPG dose with AF 14 mg/kg), intragastric
[7] = AF 14 mg/kg single intragastric
[8] = 80 mg/kg, PF (80 mg/kg) combined with AF (14 mg/kg), intragastric
[9] = 80 mg/kg, PF alone, 80 mg/kg intragastric, normoxia
[10] = 80 mg/kg, PF in TPG (TPG dose with PF 80 mg/kg), intragastric
[11] = PF 80 mg/kg single intragastric

For CC12CC(O)C3CC1(OC1OC(CO)C(O)C(O)C1O)C3(COC(=O)c1ccccc1)C(=O)O2 (centres unmarked) [AF, albiflorin], the “stability in rat plasma” value [1] was “stable”, the clearance ([2]; AF (14 mg/kg) combined with PF (80 mg/kg), intragastric) was 1800 ± 600 mL/min/kg and the clearance ([2]; AF alone, 14 mg/kg intragastric, normoxia) was 1700 ± 500 mL/min/kg. The clearance ([2]; AF in TPG (TPG dose with AF 14 mg/kg), intragastric) was 1200 ± 400 mL/min/kg, the Cmax [2, 4] was 42.4 ± 18.7 ng/mL and the Tmax [2, 4] was 0.695 h. For the same molecule, the half-life [2, 4] was 2.17 ± 0.978 h, the AUC(0-t) [2, 4] was 129 ng·h/mL and the MRT last [2, 4] was 2.97 h. It also gave a Cmax [2, 5] of 70.3 ± 19.1 ng/mL, a Tmax [2, 5] of 0.445 h and a half-life [2, 5] of 1.99 ± 0.495 h. The AUC(0-t) [2, 5] was 142 ng·h/mL, the MRT last [2, 5] was 2.25 h and the Cmax [2, 6] was 56.9 ± 12.9 ng/mL. The Tmax [2, 6] was 0.528 h, the half-life [2, 6] was 3.59 ± 1.53 h and the AUC(0-t) [2, 6] was 196 ng·h/mL. It also gave an MRT last [2, 6] of 3.76 h, a clearance [3, 7] of 1600 ± 700 mL/min/kg and a Cmax [3, 7] of 49.1 ± 16.2 ng/mL. It also gave a Tmax [3, 7] of 0.583 h, a half-life [3, 7] of 2.19 ± 0.958 h and an AUC(0-t) [3, 7] of 138 ng·h/mL. The MRT last [3, 7] was 2.16 h.
With C[C@@]12C[C@@]3(O)O[C@@H](O1)[C@]1(COC(=O)c4ccccc4)[C@H]3C[C@@]12O[C@@H]1O[C@H](CO)[C@@H](O)[C@H](O)[C@H]1O [PF, paeoniflorin] the “stability in rat plasma” value [1] was “stable”, the clearance ([2]; PF (80 mg/kg) combined with AF (14 mg/kg), intragastric) was 1600 ± 400 mL/min/kg and the clearance ([2]; PF alone, 80 mg/kg intragastric, normoxia) was 2300 ± 400 mL/min/kg. The clearance ([2]; PF in TPG (TPG dose with PF 80 mg/kg), intragastric) was 1700 ± 600 mL/min/kg, the Cmax [2, 8] was 320 ± 121 ng/mL and the Tmax [2, 8] was 0.695 h. For the same molecule, the half-life [2, 8] was 1.63 ± 0.665 h, the AUC(0-t) [2, 8] was 865 ng·h/mL and the MRT last [2, 8] was 3.33 h. The Cmax [2, 9] was 333 ± 63.6 ng/mL, the Tmax [2, 9] was 0.583 h and the half-life [2, 9] was 1.81 ± 0.63 h. It also gave an AUC(0-t) [2, 9] of 595 ng·h/mL, an MRT last [2, 9] of 1.83 h and a Cmax [2, 10] of 291 ± 141 ng/mL. For the same molecule, the Tmax [2, 10] was 0.388 h, the half-life [2, 10] was 3.91 ± 1.6 h and the AUC(0-t) [2, 10] was 902 ng·h/mL. It also gave an MRT last [2, 10] of 4.81 h, a clearance [3, 11] of 3050 ± 540 mL/min/kg and a Cmax [3, 11] of 177 ± 55.1 ng/mL. It also gave a Tmax [3, 11] of 0.847 h, a half-life [3, 11] of 1.86 ± 0.475 h and an AUC(0-t) [3, 11] of 443 ng·h/mL. The MRT last [3, 11] was 2.12 h.
